Test results from US20060293315A1, “Intermediates of novel heterocyclic compounds having antibacterial activity and process for their preparation” (Dr. Reddy's Laboratories Ltd., priority 2001, published 2006).

Row | Compound | melting point
1 | NC[C@H]1CN(c2ccc(N3CCOC3=O)c(F)c2)C(=O)O1 [Example 53] | 147 °C
2 | NC[C@H]1CN(c2ccc(N3CCOC3=O)cc2)C(=O)O1 [Example 59] | 189 to 191 °C
3 | CCC(=O)NC[C@H]1CN(c2ccc(N3CCOC3=O)c(F)c2)C(=O)O1 [Example 67] | 203 °C
4 | CCCC(=O)NC[C@H]1CN(c2ccc(N3CCOC3=O)c(F)c2)C(=O)O1 [Example 68] | 211 °C
5 | CCCCC(=O)NC[C@H]1CN(c2ccc(N3CCOC3=O)c(F)c2)C(=O)O1 [Example 69] | 187 °C
6 | CCCCCCC(=O)NC[C@H]1CN(c2ccc(N3CCOC3=O)c(F)c2)C(=O)O1 [Example 70] | 131 °C
7 | C=CC(=O)NC[C@H]1CN(c2ccc(N3CCOC3=O)c(F)c2)C(=O)O1 [Example 71] | 196 °C
8 | O=C1O[C@@H](CNC(=O)C(F)(F)F)CN1c1ccc(N2CCOC2=O)c(F)c1 [Example 72] | 194 °C
9 | CCOC(=O)C(=O)NC[C@H]1CN(c2ccc(N3CCOC3=O)c(F)c2)C(=O)O1 [Example 73] | 160 °C
10 | CC(=O)NC[C@H]1CN(c2ccc(N3CCSC3=S)c(F)c2)C(=O)O1 [Example 76] | 220 °C
11 | CC(=O)NC[C@H]1CN(c2ccc(N3CCN(C)C3=S)c(F)c2)C(=O)O1 [Example 77] | 171 °C
12 | CC(=O)NC[C@H]1CN(c2ccc(-n3c(=O)oc4cc(C)ccc43)c(F)c2)C(=O)O1 [Example 79] | 213 °C
13 | CC(=O)NC[C@H]1CN(c2ccc(-n3c(=O)oc4ccc(C)cc43)c(F)c2)C(=O)O1 [Example 80] | 202 °C
14 | CC(=O)NC[C@H]1CN(c2ccc(N3CCOC3=O)c(C(F)(F)F)c2)C(=O)O1 [Example 81] | 143 °C
15 | CCC(=O)NC[C@H]1CN(c2ccc(N3CCOC3=O)c(C(F)(F)F)c2)C(=O)O1 [Example 82] | 143 °C
16 | C=CC(=O)NC[C@H]1CN(c2ccc(N3CCOC3=O)c(C(F)(F)F)c2)C(=O)O1 [Example 84] | 191 °C
17 | CC(=O)NC[C@H]1CN(c2ccc(N3CCOC3=O)cc2F)C(=O)O1 [Example 85] | 120 °C
18 | CC(=O)NC[C@H]1CN(c2cc(F)c(N3CCOC3=O)c(F)c2)C(=O)O1 [Example 86] | 219 °C
19 | CCC(=O)NC[C@H]1CN(c2cc(F)c(N3CCOC3=O)c(F)c2)C(=O)O1 [Example 87] | 224 °C
20 | CC(=O)NC[C@H]1CN(c2ccc(N3CCOC3=O)cc2)C(=O)O1 [Example 88] | 231 °C
21 | CC(=O)NC[C@H]1CN(c2ccc(-n3c(=O)oc4ccccc43)cc2)C(=O)O1 [Example 89] | 229 °C
22 | CC(=O)NC[C@H]1CN(c2ccc(N3CC(=O)N(C)C3)c(F)c2)C(=O)O1 [Example 90] | 230 °C
23 | CC(=O)NC[C@H]1CN(c2ccc(N3CCN(C)C3=O)c(F)c2)C(=O)O1 [Example 92] | 182 °C
24 | CC(=O)NC[C@H]1CN(c2ccc(N3CCN(C)C3=O)cc2)C(=O)O1 [Example 93] | 217 °C
25 | CC(=O)NC[C@H]1CN(c2ccc(N3CCN(Cc4ccccc4)C3=O)cc2)C(=O)O1 [Example 94] | 204 °C
26 | CC(=O)NC[C@H]1CN(c2ccc(N3CCN(c4ccccc4)C3=O)c(F)c2)C(=O)O1 [Example 95] | 182 °C

Row | Compound | melting point
27 | CC(=O)NC[C@H]1CN(c2ccc(N3CCN(c4ccc(F)cc4)C3=O)c(F)c2)C(=O)O1 [Example 96] | 194 °C
28 | CC(=S)NC[C@H]1CN(c2ccc(N3CCOC3=O)c(F)c2)C(=O)O1 [Example 98] | 171 °C
29 | O=C1O[C@@H](CNC(=S)CC(F)(F)F)CN1c1ccc(N2CCOC2=O)c(F)c1 [Example 99] | 165 °C
30 | CC(=S)NC[C@H]1CN(c2ccc(N3CCN(C)C3=S)c(F)c2)C(=O)O1 [Example 100] | 111 °C
31 | CC(=S)NC[C@H]1CN(c2ccc(-n3c(=O)oc4ccccc43)c(F)c2)C(=O)O1 [Example 101] | 137 °C
32 | CC(=S)NC[C@H]1CN(c2ccc(N3CCOC3=O)c(C(F)(F)F)c2)C(=O)O1 [Example 102] | 154 °C
33 | CC(=S)NC[C@H]1CN(c2cc(F)c(N3CCOC3=O)c(F)c2)C(=O)O1 [Example 103] | 108 °C
34 | CCC(=S)NC[C@H]1CN(c2cc(F)c(N3CCOC3=O)c(F)c2)C(=O)O1 [Example 104] | 168 °C
35 | CC(=S)NC[C@H]1CN(c2ccc(N3CCOC3=O)cc2)C(=O)O1 [Example 105] | 195 °C
36 | CC(=S)NC[C@H]1CN(c2ccc(N3CCN(c4ccccc4)C3=O)c(F)c2)C(=O)O1 [Example 106] | 165 °C
37 | CC(=S)NC[C@H]1CN(c2cc(F)c(N3CNC(=O)C3)c(F)c2)C(=O)O1 [Example 108] | 148 to 150 °C
38 | COC(=O)NC[C@H]1CN(c2ccc(N3CCOC3=O)c(F)c2)C(=O)O1 [Example 109] | 153 °C
39 | COC(=O)NC[C@H]1CN(c2ccc(N3CCOC3=O)c(C(F)(F)F)c2)C(=O)O1 [Example 110] | 148 °C
40 | COC(=O)NC[C@H]1CN(c2cc(F)c(N3CCOC3=O)c(F)c2)C(=O)O1 [Example 111] | 157 °C
41 | COC(=O)NC[C@H]1CN(c2ccc(N3CCOC3=O)cc2)C(=O)O1 [Example 112] | 195 °C
42 | COC(=O)NC[C@H]1CN(c2ccc(N3CC(=O)N(C)C3)c(F)c2)C(=O)O1 [Example 113] | 226 °C
43 | CSC(=S)NC[C@H]1CN(c2ccc(N3CCOC3=O)cc2)C(=O)O1 [Example 114] | 161 °C
44 | CSC(=S)NC[C@H]1CN(c2cc(F)c(N3CCOC3=O)c(F)c2)C(=O)O1 [Example 115] | 147 °C
45 | COC(=S)NC[C@H]1CN(c2ccc(N3CCOC3=O)c(F)c2)C(=O)O1 [Example 119] | 137 °C
46 | CCOC(=S)NC[C@H]1CN(c2ccc(N3CCOC3=O)c(F)c2)C(=O)O1 [Example 120] | 208 °C
47 | O=C1O[C@@H](CNC(=S)OC(=O)C(F)(F)F)CN1c1ccc(N2CCOC2=O)c(F)c1 [Example 121] | 184 °C
48 | O=C1OCCN1c1ccc(N2C[C@H](CNC(=S)OC3CCCCC3)OC2=O)cc1 [Example 122] | 153 °C
49 | COC(=S)NC[C@H]1CN(c2ccc(N3CCOC3=O)c(F)c2)C(=O)O1 [Example 123] | 197 °C
50 | CCOC(=S)NC[C@H]1CN(c2ccc(N3CCN(C)C3=S)c(F)c2)C(=O)O1 [Example 124] | 197 °C
51 | CCCOC(=S)NC[C@H]1CN(c2ccc(N3CCN(C)C3=S)c(F)c2)C(=O)O1 [Example 125] | > 200 °C
52 | COC(=S)NC[C@H]1CN(c2ccc(N3CCN(C)C3=S)c(F)c2)C(=O)O1 [Example 126] | 179 °C

Row | Compound | melting point
53 | CC(C)OC(=S)NC[C@H]1CN(c2ccc(N3CCN(C)C3=S)c(F)c2)C(=O)O1 [Example 127] | 183 °C
54 | COC(=S)NC[C@H]1CN(c2ccc(N3CCOC3=O)c(C(F)(F)F)c2)C(=O)O1 [Example 128] | 146 °C
55 | CCOC(=S)NC[C@H]1CN(c2ccc(N3CCOC3=O)c(C(F)(F)F)c2)C(=O)O1 [Example 129] | 157 °C
56 | COC(=S)NC[C@H]1CN(c2cc(F)c(N3CCOC3=O)c(F)c2)C(=O)O1 [Example 130] | 182 °C
57 | COC(=S)NC[C@H]1CN(c2ccc(N3CCOC3=O)cc2)C(=O)O1 [Example 131] | 153 °C
58 | CCOC(=S)NC[C@H]1CN(c2ccc(N3CCOC3=O)cc2)C(=O)O1 [Example 132] | 168 °C
59 | CCCOC(=S)NC[C@H]1CN(c2ccc(N3CCOC3=O)cc2)C(=O)O1 [Example 133] | 176 °C
60 | O=C1OCCN1c1ccc(N2C[C@H](CNC(=S)OCC(F)(F)F)OC2=O)cc1 [Example 134] | 181 °C
61 | O=C1OCCN1c1ccc(N2C[C@H](CNC(=S)OCCO)OC2=O)cc1 [Example 135] | 141 °C
62 | COCCOC(=S)NC[C@H]1CN(c2ccc(N3CCOC3=O)cc2)C(=O)O1 [Example 136] | 149 °C
63 | C=CCOC(=S)NC[C@H]1CN(c2ccc(N3CCOC3=O)cc2)C(=O)O1 [Example 137] | 150 °C
64 | CC(C)OC(=S)NC[C@H]1CN(c2ccc(N3CCOC3=O)cc2)C(=O)O1 [Example 138] | 140 °C
65 | COC(=S)NC[C@H]1CN(c2ccc(-n3c(=O)oc4ccccc43)cc2)C(=O)O1 [Example 139] | 141 °C
66 | CCOC(=S)NC[C@H]1CN(c2ccc(-n3c(=O)oc4ccccc43)cc2)C(=O)O1 [Example 140] | 147 °C
67 | COC(=S)NC[C@H]1CN(c2ccc(N3CC(=O)N(C)C3)c(F)c2)C(=O)O1 [Example 141] | 218 °C
68 | COC(=S)NC[C@H]1CN(c2ccc(N3CCN(C)C3=O)cc2)C(=O)O1 [Example 142] | 209 °C
69 | COC(=S)NC[C@H]1CN(c2ccc(N3CC(=O)N(C)C3)cc2)C(=O)O1 [Example 143] | 205 °C
70 | COC(=S)NC[C@H]1CN(c2ccc(N3CCN(C)C3=O)c(F)c2)C(=O)O1 [Example 144] | 146 °C
71 | COC(=S)NC[C@H]1CN(c2ccc(N3CCN(Cc4ccccc4)C3=O)cc2)C(=O)O1 [Example 145] | 170 °C
72 | CCOC(=S)NC[C@H]1CN(c2ccc(N3CCN(Cc4ccccc4)C3=O)cc2)C(=O)O1 [Example 146] | 160 °C
73 | COC(=S)NC[C@H]1CN(c2ccc(N3CCN(c4ccccc4)C3=O)c(F)c2)C(=O)O1 [Example 147] | 174 °C
74 | CCOC(=S)NC[C@H]1CN(c2ccc(N3CCN(c4ccccc4)C3=O)c(F)c2)C(=O)O1 [Example 148] | 195 °C
75 | COC(=S)NC[C@H]1CN(c2ccc(N3CCN(c4ccc(F)cc4)C3=O)c(F)c2)C(=O)O1 [Example 149] | 208 °C
76 | CCOC(=S)NC[C@H]1CN(c2ccc(N3CCN(c4ccc(F)cc4)C3=O)c(F)c2)C(=O)O1 [Example 150] | 215 °C
77 | CC(C)OC(=S)NC[C@H]1CN(c2ccc(N3CCN(c4ccc(F)cc4)C3=O)c(F)c2)C(=O)O1 [Example 151] | 220 °C
78 | CN(C)CCOC(=S)NC[C@H]1CN(c2ccc(N3CCOC3=O)cc2)C(=O)O1 [Example 152] | 161 °C
